This passage reports cytotoxicity results from ChEMBL document CHEMBL3507680, “University of Dundee, Gates Library screen for HepG2 cell viability”.

The nature of this data set: Human HepG2 cell viability assay in 384 well format. The arrangement: dose 125 nL, time 70.5 hour; cytotoxicity at 70.5 h: concentration not given beside the values. The format is toxicity, cell-based. Conditions: HepG2 cells, read-out: Inhibition.
Turning to `Cc1nc2ccccn2c1CN1C[C@@H](CN(C)C)[C@@H](CO)C1`, the cytotoxicity at 70.5 h is -6.27%. As for `O[C@H]1CN(Cc2cccc(C(F)(F)F)c2)CC[C@@]12CCCO2`, the figure is 15.6%. For `CNC(=O)Cc1ccccc1NC(=O)C1CCN(C2CCCCC2)C1` (stereo unspecified), the cytotoxicity at 70.5 h is -7.23%.

For the compound `CN1CCN(CC2CC2)C(=O)c2cnc(N3CCCC3)nc21`, the cytotoxicity at 70.5 h worked out at 15.9%. `CCC(C)NC(=O)Cc1c(C)nc2c(c1C)c(=O)[nH]n2C` (stereo unspecified): the cytotoxicity at 70.5 h is -8.46%. Regarding `O=C(NCC1CC(=O)N(CCc2ccccc2)C1)c1ccc[nH]1` (stereo unspecified), the cytotoxicity at 70.5 h is -8.75%.

In the case of `Cn1cccc1C(=O)N1CCc2ncnc(N3CCCC3)c2CC1`, the cytotoxicity at 70.5 h was -5.07%. On to `CC(C)N(CC(=O)O)Cc1cccc(Br)c1`, for which the cytotoxicity at 70.5 h amounted to 2.77%. As for `CS(=O)(=O)N1CCO[C@@H]2CN(C(=O)C3CC(F)(F)C3)C[C@@H]2C1`, the figure is -3.63%; as for `CCN1CCN(c2ccc(CNC(=O)c3cnn(C)c3C)cn2)CC1`, -8.48%. The same measure for `CCCN1CCN(C(=O)c2cnc(C)nc2)[C@H]2CS(=O)(=O)C[C@H]21`: -0.0232%; for `Cc1noc(C)c1CN1C(=O)[C@H]2CC[C@@H]1CN(Cc1ncc[nH]1)C2`: -0.471%. The same measure for `Cn1ccc(CN2CCC(Cc3ccccc3)CC2)cc1=O`: 0.151%; for `CC(Cc1ccco1)NS(=O)(=O)N1CCCCCC1` (stereo unspecified): -8.2%. For `Cc1cc(C(=O)NC(C)Cc2ccccc2Cl)n(C)n1` (stereo unspecified), the cytotoxicity at 70.5 h was -7.08%. The same measure for `CSc1nsc(SCC(=O)c2cc3c(cc2Cl)NC(=O)C3)n1`: -29.3%; for `Cc1cc(N2CCC(O)(CN(C)C)C2)c2cc3c(cc2n1)OCO3` (stereo unspecified): 44.8%.

Consider `COCCN1CC[C@H]2CN(Cc3ccc(C)s3)C[C@@H]2C1=O`, for which the cytotoxicity at 70.5 h is -9.57%. The same measure for `c1cc(OCc2ccc3c(c2)OCO3)ccc1CNC1CC1`: 48%. The same measure for `O=C(C1CCCN(Cc2cccc(F)c2)C1)N1CCc2sccc2C1` (stereo unspecified): 0.518%; for `CCN(CC)C(=O)Cn1c(=O)n(Cc2ccco2)c2ncccc21`: -3.1%; for `CSCCCN1CCC[C@]2(C(=O)O)CN(c3cnccn3)CC[C@@H]12`: 26.4%. The same measure for `Cc1ccc(C(=O)N2C[C@@H]3CN(S(C)(=O)=O)CCO[C@@H]3C2)s1`: 0.775%; for `CCN1CCN(C)C2(CCN(Cc3ccsc3)CC2)C1=O`: -9.43%; for `O=C(CN1CC(c2ccccc2)CC1=O)N1CCN(c2nccs2)CC1` (stereo unspecified): -6.92%.

As for `O=C(NS(=O)(=O)c1ccccc1Cl)c1cccc2c1OCCO2`, the cytotoxicity at 70.5 h is -3.53%.

As for `CCn1c(CN(C)C)nnc1C1CCN(Cc2cnc(C)nc2)CC1`, the cytotoxicity at 70.5 h was -5.5%. `Cc1ccc(NC(=O)c2ccc(=O)n(CC(=O)NC3CCCC3)n2)cc1`: the cytotoxicity at 70.5 h turned out to be 4.71%.

As for `CNc1snc(C)c1C(=O)N1CCCC(n2ccnc2C)C1` (stereo unspecified), the cytotoxicity at 70.5 h was -4.48%.

Regarding `O=C(C1CCCN(c2nc3ccccc3cc2CO)C1)N1CCCC1` (stereo unspecified), the cytotoxicity at 70.5 h is 20.7%. The same measure for `Cc1nc(C)n(CCCNC(=O)C(C)n2ccnc2C(C)C)n1` (stereo unspecified): -5.67%.

As to `CC(=O)Nc1nc(C2CCN(C(=O)c3cncs3)CC2)cs1`, the cytotoxicity at 70.5 h was 11.2%. As for `Cc1sc(NC(=O)CN(C)CCOc2cccc(F)c2)c(C)c1C`, the cytotoxicity at 70.5 h is -2.66%. As for `Cc1cnc(C(=O)N2CC[C@@H]3CN(c4ncccn4)CCO[C@@H]3C2)cn1`, the figure is -4.8%; as for `CCn1cc(CNCC(c2ccc(C)s2)N2CCOCC2)cn1` (stereo unspecified), -7.64%. As for `NC(=O)NCC(=O)N1CCCC(c2nccn2CC2CCC2)C1` (stereo unspecified), the figure is -1.33%; as for `O=C1NCC(C(=O)N(Cc2cccc(Br)c2)C2CC2)N1` (stereo unspecified), 26.3%; as for `CC(CN1CCOC1=O)NC(=O)c1cccc(Cl)c1Cl` (stereo unspecified), -4.07%. As for `Cc1nc(CN2CCCC(Nc3ncnc4ccccc34)C2)no1` (stereo unspecified), the figure is -5.36%. Consider `COC(=O)[C@@H]1C[C@@H](O)CN1Cc1ccn(-c2ccc(F)cc2)n1`, for which the cytotoxicity at 70.5 h was -10.3%.

Take `O=C(O)C(c1ccc2c(c1)OCO2)N1CCCCCC1` (stereo unspecified): the cytotoxicity at 70.5 h is -1.77%. The same measure for `COc1ccc(Cl)cc1NCC(=O)N(Cc1ccncc1)C1CC1`: 15.5%; for `CSCC(=O)Nc1ncn(Cc2cccc(Br)c2)n1`: -8.51%; for `O=C(c1ccc(F)cc1)N(CCCO)S(=O)(=O)c1cccs1`: -16.3%.

For the compound `CCC(C)N1CCC2(CC1)CN(c1cncnc1)C(=O)CO2` (stereo unspecified), the cytotoxicity at 70.5 h is -15.3%. The same measure for `CC(=O)Nc1nc(C(=O)N2CCC(Nc3cccnn3)CC2)cs1`: -2.92%; for `CC(=O)N1CCN(c2cnnc(N3CCCC3)c2)CC1`: -1.26%. The same measure for `CN1CCCC(CCC(=O)N2CCc3c(nc(CC4CC4)[nH]c3=O)C2)C1` (stereo unspecified): -4.3%; for `CCc1noc(C)c1C(=O)N1CCN(c2nc(C)cc(OC)n2)CC1`: 5.53%; for `Cc1ccc(CNCCS(=O)(=O)N2CCOCC2)cc1C`: -6.06%. As for `COCc1nc(C(=O)N2CCCC2c2cc(C)no2)cs1` (stereo unspecified), the figure is -7.8%.

For `CC(C)S(=O)(=O)N1CCC(c2cc3n(n2)[C@@H](C(F)(F)F)C[C@@H](C)N3)C1` (stereo partly specified), the cytotoxicity at 70.5 h is -11%. As for `OCCN1CCC(F)(F)C2(CCN(c3cnccn3)C2)C1` (stereo unspecified), the figure is -5.87%; as for `CNC(=O)[C@@H]1C[C@H](N)CN1S(=O)(=O)c1cc(Cl)c(Cl)s1`, -2.73%; as for `CC(C)(C)c1cc(=O)n2c(n1)SCC(C(=O)NCc1ccco1)C2` (stereo unspecified), 29.2%.

As to `Cc1c(O)cccc1C(=O)N1CCCC2(C1)C(=O)N(C)c1ccccc12` (stereo unspecified), the cytotoxicity at 70.5 h turned out to be 23%. The same measure for `O=C1CC2(CCCCN2C(=O)c2ccco2)CN1c1cccnc1` (stereo unspecified): 15.4%; for `CN(Cc1ccccc1O)C(=O)NC1CCCN(c2ncccn2)C1` (stereo unspecified): 22.3%. As for `O=C(N[C@@H]1CNCCC[C@H]1O)c1ccc(OCCN2CCCC2)cc1`, the figure is -3.24%. Turning to `O=C(Nc1ccccc1)[C@H]1C[C@@H]2CN(S(=O)(=O)C3CC3)C[C@H]1O2`, the cytotoxicity at 70.5 h is -14.4%. The same measure for `N#Cc1ccc(CNCC2(c3ccccc3)CCOCC2)cc1`: -12%; for `COc1ccc(NC(=O)N(C)Cc2ccsc2)cn1`: -3.11%; for `CCN1C[C@H]2CCN(C(=O)Nc3ccccc3C)CC[C@H]2S1(=O)=O`: 15.6%. With `Cc1sc(Br)cc1S(=O)(=O)NCCCN`, the cytotoxicity at 70.5 h is -8.71%.

With `Nc1cc2c(nn1)CCN(C(=O)c1ccccc1Oc1cccnc1)C2`, the cytotoxicity at 70.5 h is -1.03%. As for `Cn1cc(CN2C[C@H]3CCC[C@@H](CNc4ncccn4)[C@H]3C2)cn1`, the figure is -3.23%; as for `Cc1n[nH]c(C)c1CCC(=O)N1CCC(O)(CN2CCOCC2)C1` (stereo unspecified), 15.2%; as for `Cc1ccc(CC(=O)N2CCC(Nc3cccnn3)CC2)s1`, 0.908%.

In the case of `Cc1[nH]nc2ncc(C(=O)N3CCN(CC(C)C)CC3)cc12`, the cytotoxicity at 70.5 h was 11.9%. As for `O=C(c1ccco1)N1CC[C@H]2[C@H]1CCN2S(=O)(=O)C1CC1`, the figure is -8.4%; as for `CN(C)C(=O)c1ccc(C(C(=O)O)N(C)Cc2ccccc2Cl)cc1` (stereo unspecified), -8.81%; as for `Cc1ccc2nc(CN(Cc3ccc(C)o3)C(C)C)cc(=O)n2c1`, -11.5%. With `CC(C)n1[nH]c(=O)c2c1NC(=O)CC2c1cccc(OC(F)F)c1` (stereo unspecified), the cytotoxicity at 70.5 h came to 6.29%. As for `Cc1cc(C)n(-c2ccc(CNCc3ccc(F)c(F)c3)cn2)n1`, the figure is 2.51%; as for `CCCOCC1CCN(C(=O)c2cnc(-c3csc(C)n3)nc2O)C1` (stereo unspecified), -8.59%; as for `Cc1noc(C)c1CNC(=O)N1CCN(Cc2cscn2)CC1`, -5.24%. As for `CCn1nccc1CNC(=O)C1CC1`, the figure is -10.1%.

Regarding `COc1cccc(CN2CCN(c3cccc(C(C)C)n3)CC2)c1F`, the cytotoxicity at 70.5 h is -0.272%.

For the compound `CS(=O)(=O)N1CCCC12CCCN(C(=O)c1ccc3[nH]ccc3c1)C2` (stereo unspecified), the cytotoxicity at 70.5 h is -10.6%.

Consider `COc1cc(N2CC[C@@H]3O[C@H](C(=O)NCC4CC4)C[C@@H]32)ncn1`, for which the cytotoxicity at 70.5 h turned out to be 16.5%. The same measure for `CNS(=O)(=O)c1ccc(C(=O)NCCc2ccccn2)cc1`: -10.7%; for `CSCc1cccc(S(=O)(=O)N2CCC(C)CC2)c1`: 8.82%; for `O=C(CC1CC1)N[C@@H]1CN(Cc2ccccn2)C[C@@H]2CCCO[C@@H]21`: -0.597%. As for `CCOc1ccc(C(=O)CCC(=O)N(C)Cc2nc(C)c[nH]2)cc1C`, the figure is -19.8%; as for `COc1ccc(CN2CCCCC2CNC(=O)OC(C)(C)C)cc1F` (stereo unspecified), -7.89%; as for `CCNC(=O)NC(=O)CN1CCC(c2cccc(F)c2)C1` (stereo unspecified), -2.05%.

Regarding `Cn1ncc(C(=O)N2CCN(CCS(C)(=O)=O)CC2)c1Cl`, the cytotoxicity at 70.5 h turned out to be 18.4%. Take `COC(=O)c1ccc(N2CCN(C(=O)c3ccn(C)c(=O)c3)CC2)cc1`: the cytotoxicity at 70.5 h came to 1.93%. The same measure for `COCCn1ccnc1C1CCN(Cc2ccccc2C#N)CC1`: -8.7%; for `CN1[C@H](CN2CCCC2)C[C@@H]2CN(Cc3ccoc3)CC[C@@H]21`: 4.1%; for `O=C(Cc1ccsc1)NC1CCc2c(ccc(=O)n2CC2CC2)C1` (stereo unspecified): 12%. The same measure for `Cc1cccc(C)c1-n1nnnc1C1(NCc2ccco2)CCCC1`: -6.25%; for `Cn1cc(NC(=O)N2CCCC2c2ccccn2)ccc1=O` (stereo unspecified): -5.4%.

`Cc1ccnn1-c1ccc(C(=O)N2CCCC(n3ccnc3)C2)cc1` (stereo unspecified): the cytotoxicity at 70.5 h was -7.39%.

With `CCOc1ccc(NC(=O)c2ccc(C#N)cc2C)cc1CO`, the cytotoxicity at 70.5 h is -1.73%. For `CN(Cc1ccccc1)C1(C(=O)NC(C)(C)CO)Cc2ccccc2C1`, the cytotoxicity at 70.5 h came out at 2.66%.
